Results taken from publication PMC10220285, “Development of an assay pipeline for the discovery of novel small molecule inhibitors of human glutathione peroxidases GPX1 and GPX4” (Redox Biology, 2023).

Legend:
[1] = molecular target: T1, GPX1 (Homo sapiens, UniProt P07203); assay: GR-coupled GPX1 activity assay (NADPH fluorescence, CHP substrate); type: biochemical; settings: for inhibition of GPX1: Fig. 9 pan-selenoprotein inhibitors; for IC50: IC50 of resulting CRC, Table 2, read-out: IC50 GPx1
T1 construct: made in house; host or cells: E. coli
T1 sequence (P07203 1-203): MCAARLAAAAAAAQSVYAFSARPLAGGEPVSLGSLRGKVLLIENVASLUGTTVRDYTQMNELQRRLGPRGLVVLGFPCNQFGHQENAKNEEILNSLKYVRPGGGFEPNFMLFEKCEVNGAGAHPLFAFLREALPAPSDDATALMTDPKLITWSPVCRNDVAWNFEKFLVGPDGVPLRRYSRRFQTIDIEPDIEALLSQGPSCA
Protocol: (§1) The compound plates were prepared as described previously. Purified recombinant human GPX1, GPX2, GPX4, GR, and TXNRD1 were produced and purified as previously reported [[48], [49], [50]]. As production of GPX2 was not optimized at the onset of screening, only GPX1 and GPX4 underwent library screening, and GPX2 was used as a follow-up.
(§2) Follow-up and orthogonal assays were run in quadruplicate unless otherwise stated. Assay schemes are illustrated in Fig. 1.
(§3) To measure GPX activity, assays were performed in 1536-well format in black medium-binding solid-bottom plates (Greiner). These assay conditions were optimized for high-throughput screening from an assay first described by Paglia and Valentine. GPX activity is measured indirectly by coupling the reaction with GR whereby GPX reduces hydroperoxide by oxidizing two GSH to GSSG and the oxidized glutathione is recycled to its reduced state by GR and NADPH (Fig. 1B). The rate of consumption of NADPH is directly proportional to the activity of GPX and can be measured by the decrease in fluorescence at 340 nm/450 nm.
(§4) First, 3 μL of enzyme in TES assay buffer (50 mM Tris-HCl, 2 mM EDTA (pH 7.5), 150 mM NaCl with enzyme [10 nM GPX1, 200 nM GPX4 ] and BSA [0.01%]) was added to columns 3–48 of 1536-well plates using a BioRAPTR Flying Reagent Dispenser (Let's Go Robotics (LGR), Carlsbad, CA). A no-enzyme control (0.01% BSA in TES assay buffer) was added to columns 1–2. Compounds (25 nL, library and DMSO controls) were added to each well with a pin tool (Kalypsys), and the plates were incubated for 30 min at room temperature before 1 μL of master mix (100 nM GR, 1 mM GSH, 0.5 mM NADPH in TES buffer) was added. 1 μL of cumene hydroperoxide (CHP) ([0.5 mM] in 50% EtOH) was then added within 5 min to initiate the reaction. Fluorescence at 340/450 nm was measured using a ViewLux multimodal detector (PerkinElmer, Waltham, MA) at initial t = 0 and endpoint t = 15 min (GPX1) or t = 20 min (GPX4).
(§5) Follow-up confirmation assays were also run in 96-well format using medium binding clear 96-well SpectraPlate microplates (PerkinElmer) and NADPH absorbance at 340 nm was measured every 30 s for 30 min using an Infinite® M Nano (Tecan).
(§6) Percent activity was determined by first calculating delta RFU (decrease in fluorescence between t = 0 and t = 20/30 min in primary GPX, GR counter-screen, and TXNRD1 assays, or increase in fluorescence between t = 0 and t = 20 min in the Monobromobimane GPX endpoint assay), and normalizing enzyme activity using median delta RFU values for DMSO-treated enzyme control, and DMSO-treated no-enzyme controls.
(§7) Compound inhibitory activity in the qHTS assays was determined by plotting dose-response data for each sample and fitting with a four-parameter logistic fit to assess IC50 values, efficacy (maximal response), and AUC (area under the curve), as previously described. Hits were classified by the quality of the concentration-response curves (CRC). Curve classes −1.1 and −1.2 being the highest-confidence actives with complete CRCs and classes −2.1 and −2.2 being lower-confidence actives with incomplete CRCs.

[2] = molecular target: T2, GPX4 (Homo sapiens, UniProt P36969); assay: GR-coupled GPX4 activity assay (NADPH fluorescence, CHP substrate); type: biochemical; settings: Fig. 9 pan-selenoprotein inhibitors
T2 construct: made in house; host or cells: E. coli
T2 sequence (P36969 1-170 isoform P36969-2): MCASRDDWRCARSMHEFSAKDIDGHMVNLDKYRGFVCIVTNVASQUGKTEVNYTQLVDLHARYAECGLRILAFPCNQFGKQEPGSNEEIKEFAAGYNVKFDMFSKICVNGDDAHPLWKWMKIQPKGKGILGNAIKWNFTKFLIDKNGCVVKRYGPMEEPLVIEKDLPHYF
Protocol: as §1, §2, §3, §4, §5, §6, §7

[3] = molecular target: T3, human GPX2 (Homo sapiens, UniProt P18283); assay: GPX2 activity assay (follow-up isoform specificity); type: biochemical; settings: for inhibition of GPX2: Fig. 9 pan-selenoprotein inhibitors; for IC50: IC50 of resulting CRC, Table 2
T3 construct: made in house
T3 sequence (P18283 1-190): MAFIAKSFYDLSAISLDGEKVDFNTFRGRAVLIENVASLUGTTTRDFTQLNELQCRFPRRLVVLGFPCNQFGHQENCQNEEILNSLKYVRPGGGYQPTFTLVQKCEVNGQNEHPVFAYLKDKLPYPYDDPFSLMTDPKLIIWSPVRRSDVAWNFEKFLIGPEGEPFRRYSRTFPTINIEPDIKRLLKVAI
Protocol: as §1, §2
Previous work has shown similarities in the substrate specificities of GPX1 and GPX2, and a more unique substrate profile of GPX4 [8].
The GPX2 isoform of human selenoprotein GPXs is found in epithelial cells and has similar substrate specificity with GPX1, but not as much with GPX4 [8]. Additionally, GPX1 and GPX2 both form homotetramers and share similarities in structural homology, although GPX2 has a much slower turnover rate.

[4] = molecular target: T4, GR (glutathione reductase) (Homo sapiens, UniProt P00390); assay: GR counter-assay; type: biochemical; settings: Fig. 9 pan-selenoprotein inhibitors
T4 construct: made in house
T4 sequence (P00390 44-522): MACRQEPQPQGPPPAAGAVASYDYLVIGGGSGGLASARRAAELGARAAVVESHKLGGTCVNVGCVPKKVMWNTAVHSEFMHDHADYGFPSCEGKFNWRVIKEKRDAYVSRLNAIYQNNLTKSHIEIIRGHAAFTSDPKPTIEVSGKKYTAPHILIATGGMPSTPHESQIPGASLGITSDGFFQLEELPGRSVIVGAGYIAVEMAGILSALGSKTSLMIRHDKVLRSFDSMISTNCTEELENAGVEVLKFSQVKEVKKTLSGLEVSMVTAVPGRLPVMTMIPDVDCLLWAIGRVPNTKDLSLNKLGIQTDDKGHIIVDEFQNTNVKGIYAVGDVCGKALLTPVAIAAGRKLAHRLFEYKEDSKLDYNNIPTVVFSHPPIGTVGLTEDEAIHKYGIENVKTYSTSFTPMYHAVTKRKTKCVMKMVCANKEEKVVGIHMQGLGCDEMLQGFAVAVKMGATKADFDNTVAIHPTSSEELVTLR
Protocol: as §1, §2
To identify false positive compounds that interfere with the primary assay through inhibition of GR, ‘hits’ from the primary screening were run against a GR counter assay to identify this possible off-target inhibition (Fig. 1C). Briefly, 3 μL enzyme mixture (100 nM GR, 0.01% BSA in TES buffer) was dispensed into columns […] of a 1536-well black medium-binding solid-bottom plates. The no-enzyme control (0.01% BSA in TES buffer) was included in column 1 and 2. Compounds and controls (23 nL) were added to each well with a pin tool (Kalypsys), and the plates were incubated for 30 min before 2 μL of substrate mixture (1 mM GSSG 0.4 mM NADPH in TES buffer) was added to each well and absorbance at 340 nm was measured at t = 0 and t = 20 min using a ViewLux Multimodal detector (PerkinElmer).
as §6, §7

[5] = molecular target: T5, human TXNRD1 (Homo sapiens, UniProt Q16881); assay: Thioredoxin reductase 1 (TXNRD1) inhibition assay (selenite reduction); type: biochemical; settings: Fig. 9 pan-selenoprotein inhibitors
T5 construct: made in house
T5 sequence (Q16881 1-499 isoform Q16881-5): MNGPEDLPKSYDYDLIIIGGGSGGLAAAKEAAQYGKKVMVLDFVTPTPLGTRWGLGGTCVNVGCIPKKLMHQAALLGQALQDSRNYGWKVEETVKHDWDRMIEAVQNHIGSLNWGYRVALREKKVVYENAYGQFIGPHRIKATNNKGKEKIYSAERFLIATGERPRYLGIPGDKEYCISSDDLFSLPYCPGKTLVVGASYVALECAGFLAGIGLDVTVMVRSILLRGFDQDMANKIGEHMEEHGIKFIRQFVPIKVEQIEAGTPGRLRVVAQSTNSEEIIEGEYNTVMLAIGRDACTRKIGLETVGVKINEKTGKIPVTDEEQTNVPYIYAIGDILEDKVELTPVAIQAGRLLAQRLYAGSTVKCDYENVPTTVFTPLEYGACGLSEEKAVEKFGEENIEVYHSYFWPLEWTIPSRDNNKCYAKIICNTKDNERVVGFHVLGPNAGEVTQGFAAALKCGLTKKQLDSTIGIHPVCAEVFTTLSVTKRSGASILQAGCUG
Protocol: as §1, §2
TXNRD1 activity was assessed using a modified 1536-well TXNRD1 inhibition assay, based upon TXNRD1-catalyzed selenite reduction as previously described (Fig. 1D). […] TE buffer was dispensed into column 1 and 2 as a no-enzyme control. Finally, 1 μL of sodium selenite in TE buffer was dispensed into each well for final concentrations of 90 nM hTXNRD1, 0.4 mM NADPH, and 0.4 mM sodium selenite. The plate was read in a Viewlux multimodal detector in kinetic mode and fluorescence at 340 nm/450 nm was measured every minute for 8 min.
as §6, §7

[6] = molecular target: T1, GPX1; assay: nanoDSF thermal stabilization, GPX1; type: binding; settings: for GSH Binding (ΔTm) GPx1; shift in nanoDSF melting temperature / Tm GPX1 (nanoDSF): first or only inflection point; for thermal stabilization of GPX1: nanoDSF
Protocol: Thermal stabilization of enzyme ± DMSO or ± compound was carried out in a Prometheus NT.48 instrument (NanoTemper Technologies) with an excitation wavelength of 280 nm. Intrinsic fluorescence at 330 nm and 350 nm was monitored while heating. Capillaries were filled with ∼10 μL of a solution of GPX1/4 (1 mg/mL), ± small molecule (100 μM) or DMSO, in TES buffer and placed into the instrument. The capillaries were subjected to a temperature range from 30 to 90 °C at a ramp rate of 2 °C/min. The ratio of the recorded emission intensities (350nm/330 nm) were plotted as a function of temperature. This ratio and first derivatives were calculated using the NanoTemper software and were plotted using GraphPad Prism.

[7] = 100 μM small molecule vs DMSO control

Row | IC50 [1] | IC50 [3] | GSH Binding (ΔTm) GPx1; shift in nanoDSF melting temperature [6, 7] | Tm GPX1 (nanoDSF) ([6]; 100 μM, DMSO control Tm 42.5°C) | GSH Binding (ΔTm) GPx1; shift in nanoDSF melting temperature, second inflection point ([6]; 100 μM small molecule vs DMSO control, second inflection point) | Tm GPX1 (nanoDSF), second inflection point ([6]; 100 μM, DMSO control Tm 42.5°C) | SMILES | inhibition of GPX1 [1] | inhibition of GPX4 [2] | inhibition of GPX2 [3] | inhibition of GR [4] | inhibition of TXNRD1 [5] | thermal stabilization of GPX1 [6]
1 | – | – | – | – | – | – | Cc1ccc(NC(=O)N2CCN(c3nc(N)nc4sc(-c5cccnc5)nc34)CC2)cc1 [PI4KIII beta inhibitor 3] | inhibited all tested selenoproteins | inhibited all tested selenoproteins | inhibited all tested selenoproteins | not GR | inhibited all tested selenoproteins | –
2 | – | – | – | – | – | – | CO[C@@]1(NC(=O)C2SC(=C(C(N)=O)C(=O)O)S2)C(=O)N2C(C(=O)O)=C(CSc3nnnn3C)CS[C@@H]21 (stereo partly drawn) [cefotetan sodium] | inhibited all tested selenoproteins | inhibited all tested selenoproteins | inhibited all tested selenoproteins | not GR | inhibited all tested selenoproteins | –
3 | – | – | – | – | – | – | CC(OC(=O)OC1CCCCC1)OC(=O)C1=C(CSc2nnnn2CCN(C)C)CS[C@@H]2[C@H](NC(=O)Cc3csc(N)n3)C(=O)N12 (stereo partly drawn) [SCE-2174] | inhibited all tested selenoproteins | inhibited all tested selenoproteins | inhibited all tested selenoproteins | not GR | inhibited all tested selenoproteins | –
4 | 8.9 µM | 7.7 µM | +7.5 °C | 50.0 °C | – | – | COc1ccc2[nH]c([S+]([O-])Cc3ncc(C)c(OC)c3C)nc2n1 (stereo not drawn) [Tenatoprazole] | – | – | – | – | – | significant shifts in the melting temperature of GPX1
5 | 5.7 µM | 4.7 µM | +6.3 °C | 48.8 °C | +12.8 °C | 55.3 °C | O=C(N[C@H]1CCS[C@H]2CCC[C@@H](C(=O)O)N2C1=O)[C@@H](S)Cc1ccccc1 [Omapatrilat] | – | – | – | – | – | significant shifts in the melting temperature of GPX1
6 | 5.2 µM | 2.3 µM | -0.9 °C | 41.6 °C | – | – | O=C(O)C(S)C(S)C(=O)O (stereo not drawn) [2,3-Dimercaptosuccinic acid] | – | – | – | – | – | –
7 | 18.5 µM | 10 µM | -0.2 °C | 42.3 °C | – | – | Nc1nc(/C(=C/CC(=O)O)C(=O)N[C@@H]2C(=O)N3C(C(=O)O)=CCS[C@H]23)cs1 [Ceftibuten] | – | – | – | – | – | did not show any thermal stabilization
